Measured values as given in patent US20220175734A1, “USING PARASYMPATHOMIMETIC DRUGS ALONE OR, IN COMBINATION WITH ONE OR MORE ALPHA AGONISTS IN PSEUDOPHAKIC PATIENTS, TO CREATE MULTI-FOCALITY” (Visus Therapeutics, Inc., priority 2019, published 2022).
Where “and” joins values, the source holds several entries; their conditions need not be identical. Equal entries are not always repeated. Blank lines part the entries; values can stand above or below the compound they belong to.

Experiments:
presbyopia subjects [1] = experiment: Example 8 dose range studies of carbachol and pilocarpine with or without brimonidine: near LogMAR visual acuity
Method: Dose range studies were performed for carbachol and pilocarpine.
Both Groups 1 and 2 received the same pre- and post-treatment work-up and measurements: Age, gender, initial pupil size, and near vision acuity (NVA) were documented. Subjects' NVA was measured post treatment at 1, 2, 4, and 8 hours, at the same room illumination Any adverse symptoms and subject satisfaction with near and distance vision were documented.

presbyopia subjects [2] = experiment: Example 8 dose range studies: adverse symptoms, tolerability and satisfaction survey; type: in vivo, human
Text: The survey asked the patients whether they would use the drops again.

[3] = Stability of pilocarpine at neutral pH; type: physicochemical; settings: needs about pH 5
[4] = test system: naturally emmetropic and presbyopic subjects; experiment: Example 13 crossover trial: pupil size (Colvard infrared pupilometer) (Table 13); type: in vivo, human; settings: for PS 1-h / PS 2-h / PS 4-h / PS 8-h / PS Pre-treatment: mean pupil size, ten subjects; for PS Pre-treatment: before treatment
Text: (§1) Participants were randomly selected volunteers. […] None of the patients included in the study had received any topical medication that could cause pupil mydriasis or miosis. […] All procedures followed were in accordance with the ethical standards of the responsible committee on human experimentation.
(§2) The 3% carbachol drops included 50 ppm of benzalkonium chloride.

[5] = test system: naturally emmetropic and presbyopic subjects; experiment: Example 13 crossover trial, combined vs separate carbachol and brimonidine drops: near visual acuity (Rosenbaum chart, Jaeger notation) (Table 13); type: in vivo, human; settings: for NVA 1-h / NVA 2-h / NVA 4-h / NVA 8-h / NVA Pre-treatment: mean ± SD, ten subjects; for NVA Pre-treatment: before treatment
Text: as §1, §2

emmetropic presbyopes = settings: Group 1
Text: (§3) The study evaluated in a blind study the efficacy of using of a parasympathomimetic drug of different concentrations together with an alpha agonist to create optically beneficial miosis to temporarily treat different types of presbyopia (emmetropic, myopic and hyperopic).
(§4) One hundred and seventy seven presbyopic subjects with a mean age of 49.8±3.9 years (range 41-57 years); 96 males and 81 females were recruited in this study. The participants in the study all gave written informed consent. […] During the study, the subjects were closely monitored and regularly asked to report on any ocular, systemic, or physiological reactions they experienced. […]
(§5) Initial pupil size and both near and distance visual acuities were documented before treatment and at 1, 2, 4, 8 and 10 hours after treatment at the same room illumination. Subjects were monitored and subjected to complete ocular examination including visual acuity evaluation and slit-lamp biomicroscopy after one week of treatment and monthly during the first three months to evaluate dosage, satisfaction, adverse effects and complications (for instance, retinal detachment, pigment dispersion, posterior synechiae and intraocular inflammation). […] Distance visual acuity was measured using the standard Snellen projector chart. […] Any adverse symptoms and subject satisfaction with near and distance vision were also monitored. […]

presbyopic subjects = settings: subjects receiving brimonidine drops
Text: One hundred and seventy seven presbyopic subjects with a mean age of 49.8±3.9 years (range 41-57 years); 96 males and 81 females were recruited in this study. The participants in the study all gave written informed consent. […] All subjects were in good physical and ocular health and completed a questionnaire to ascertain any contraindications for participation or predisposition to complications (e.g. heart or respiratory conditions, migraines, high myopia, ocular or systemic medications, or ocular surgeries). […] The examination screened for contraindications to the drugs, susceptibility to retinal detachment, ocular pathology, or peripheral retinal degeneration. […] During the study, the subjects were closely monitored and regularly asked to report on any ocular, systemic, or physiological reactions they experienced. […]
Initial pupil size and both near and distance visual acuities were documented before treatment and at 1, 2, 4, 8 and 10 hours after treatment at the same room illumination. Subjects were monitored and subjected to complete ocular examination including visual acuity evaluation and slit-lamp biomicroscopy after one week of treatment and monthly during the first three months to evaluate dosage, satisfaction, adverse effects and complications (for instance, retinal detachment, pigment dispersion, posterior synechiae and intraocular inflammation). […]

hyperopic presbyopes = experiment: Example 6 masked study: near visual acuity (Jaeger Eye Chart), Group 3, both eyes (Tables 9, 10)
Text: as §3, §4, §5

[6] = test system: naturally emmetropic and presbyopic subjects; settings: combination, separate, brimonidine alone, carbachol alone; FIG. 11
Method: Participants were volunteers selected at random.
The study used standard Snellen projector chart to measure distance visual acuity. Near visual acuity was assessed at 40 cm using Jaeger (J) Eye Chart. Statistical analysis was performed using the Student's t-test and p value of less than 0.05 was considered statistically significant. Data was expressed as mean, range, and standard deviation (SD).

myopic presbyopes = settings: Group 2
Text: as §3, §4, §5

[7] = test system: patients suffering from presbyopia; experiment: Table 11: pupil diameter after pilocarpine alone or pilocarpine plus brimonidine; type: in vivo, human; settings: individual patients
[8] = test system: patients suffering from presbyopia; experiment: Example 4 preliminary evaluation: near visual acuity after pilocarpine alone or with brimonidine (Table 1 dosages, FIG. 1); type: in vivo, human; settings: individual patients
Text: Initially, 10 patients were selected for preliminary evaluation. […] All six dosages provided some (varying) initial improvement in visual acuity. However, the effect of formulations containing pilocarpine alone appears to wear out fairly quickly whereas it takes longer time for effects of formulations containing both drugs to wear out.

Compound: C[N+](C)(C)CCOC(N)=O [carbachol]
duration (presbyopia subjects [1]; in vivo): 8 h
tolerability / discomfort vs carbachol concentration (presbyopia subjects [2]; over seven days, FIG. 15): caused some increased discomfort

stability at neutral pH [3]: unstable at neutral pH
Compound: CC[C@@H]1C(=O)OC[C@@H]1Cc1cncn1C [pilocarpine]
onset of effect (presbyopia subjects [1]; pilocarpine vs carbachol): more immediate effect
duration (presbyopia subjects [1]; pilocarpine vs carbachol, in words): shorter duration
burning (presbyopia subjects [2]; in vivo): burned

Compound: C[N+](C)(C)CCOC(N)=O [3% carbachol alone, carbachol]
mean pupil size (PS) ([4]; 1 h post-treatment): 2.8±0.3 mm
mean pupil size (PS) ([4]; 2 h post-treatment): 3±0.3 mm
mean pupil size (PS) ([4]; 4 h post-treatment): 3.5±0.3 mm
mean pupil size (PS) ([4]; 8 h post-treatment): 4±0.3 mm
mean pupil size (PS) ([4]; before treatment (baseline)): 4.3±0.5 mm
mean pupil size (target) ([4]; hours 1-8, FIG. 24): never achieved the target pupil size
PS 1-h ([4]; 1 h post-treatment): 2.8 ± 0.3 mm
PS 2-h ([4]; 2 h post-treatment): 3 ± 0.3 mm
PS 4-h ([4]; 4 h post-treatment): 3.5 ± 0.3 mm
PS 8-h ([4]; 8 h post-treatment): 4 ± 0.3 mm
PS Pre-treatment [4]: 4.3 ± 0.5 mm
mean near visual acuity (NVA) ([5]; 1 h post-treatment): 5.5 ± 1 J
mean near visual acuity (NVA) ([5]; 2 h post-treatment): 5.9 ± 0.8 J
mean near visual acuity (NVA) ([5]; 4 h post-treatment): 7 ± 1.2 J
mean near visual acuity (NVA) ([5]; 8 h post-treatment): 7.5 ± 1 J
mean near visual acuity (NVA) ([5]; before treatment (baseline)): 8.6 ± 1.5 J
mean near visual acuity (NVA) (target) ([5]; hours 1-8, Snellen fraction, FIG. 25): never achieved an NVA of ≥20/40
NVA 1-h ([5]; 1 h post-treatment): 5.5 ± 1 J
NVA 2-h ([5]; 2 h post-treatment): 5.9 ± 0.8 J
NVA 4-h ([5]; 4 h post-treatment): 7 ± 1.2 J
NVA 8-h ([5]; 8 h post-treatment): 7.5 ± 1 J
NVA Pre-treatment [5]: 8.6 ± 1.5 J

mild burning sensation, number of subjects (presbyopic subjects): 10 subjects
Compound: Brc1c(NC2=NCCN2)ccc2nccnc12 [Brimonidine 0.2%, brimonidine]
difference in mean NVA before treatment vs any time point after treatment (emmetropic presbyopes): No statistically significant difference
difference in mean NVA before treatment vs any time point after treatment (hyperopic presbyopes): No statistically significant difference
difference in mean PS before treatment vs any time point after treatment ([4]; P>0.05): no statistically significant difference
miotic effect ([4]; mainly first hour after instillation, light luminance, not statistically significant (P>0.05)): mild miotic effect
PS 1-h ([4]; 1 h post-treatment): 3.95 ± 0.5 mm
PS 2-h ([4]; 2 h post-treatment): 4.2 ± 0.4 mm
PS 4-h ([4]; 4 h post-treatment): 4.3 ± 0.5 mm
PS 8-h ([4]; 8 h post-treatment): 4.3 ± 0.5 mm
PS Pre-treatment [4]: 4.3 ± 0.5 mm
effect on pupil size or NVA ([4]; with 50 ppm BAK): virtually no effect
synergy (presbyopia subjects [1]; in vivo): synergistic with both carbachol and pilocarpine
mean change in near visual acuity (J), comparison of all groups [6]: the least
difference in mean NVA before treatment vs any time point after treatment ([5]; P>0.05): no statistically significant difference
NVA 1-h ([5]; 1 h post-treatment): 7.7 ± 1.3 J
NVA 2-h ([5]; 2 h post-treatment): 8.2 ± 1.3 J
NVA 4-h ([5]; 4 h post-treatment): 8.5 ± 1.4 J
NVA 8-h ([5]; 8 h post-treatment): 8.6 ± 1.5 J
NVA Pre-treatment [5]: 8.6 ± 1.5 J
difference in mean NVA before treatment vs any time point after treatment (myopic presbyopes): No statistically significant difference

Compound: CC[C@@H]1C(=O)OC[C@@H]1Cc1cncn1C [Pilo Alone]
pupil 1 hr ([7]; Pilo 0.5%): 2.5 and 3.8 and 3 (2×)
pupil 2 hrs ([7]; Pilo 0.5%): 3 and 4 and 2.5 and 3.3
pupil 4 hrs ([7]; Pilo 0.5%): 3.3 and 4 and 3 and 4.2
pupil 1 hr ([7]; Pilo 1%): 2.5 (2×) and 1.5 and 3
pupil 2 hrs ([7]; Pilo 1%): 3 (2×) and 1.5 and 2.5
pupil 4 hrs ([7]; Pilo 1%): 4 (2×) and 2.5 and 3
pupil 4 hrs ([7]; Pilo […]): 4
Pre-Treatment Pupil Diam O.S. ([7]; before treatment, left eye): 4 (2×) and 4.3 and 3.5 (2×) and 5 and 3.9 and 3 and 4.5 (3×) and 5.4
Pre-Treatment Pupil Diam O.D. ([7]; before treatment, right eye): 4 (3×) and 3.5 (2×) and 5 and 4.3 and 3 and 4.5 (3×) and 5.5
nVA(j) 1 hr ([8]; Pilo 0.5%): 3 j (2×) and 6 j and 5 j
nVA(j) 2 hrs ([8]; Pilo 0.5%): 5 j (2×) and 3 j (2×)
nVA(j) 4 hrs ([8]; Pilo 0.5%): 5 j (3×) and 3 j
nVA(j) 1 hr ([8]; Pilo 1%): 3 j (2×) and 2 j and 8 j
nVA(j) 2 hrs ([8]; Pilo 1%): 3 j and 2 j (2×) and 8 j
nVA(j) 4 hrs ([8]; Pilo 1%): 5 j (2×) and 3 j and 10 j
Pre-Treatment Near Va ([8]; before treatment): 6 j (4×) and 5 j (4×) and 8 j (2×) and 10 j and 3 j
